# Laboratory results: patent US20110166121A1 (LG LIFE SCIENCES LTD., priority 2008, published 2011)
# Test system: Human platelet aggregation caused by ADP
# Assay: Inhibition of ADP-induced platelet aggregation (Mimic-human PRP)
# Type: cell-based
# Settings: 20 μM ADP, human platelet concentrate diluted with PPP, absorption at 595 nm
# Description: Platelet Preparation for Aggregation Studies
# Human platelet aggregation reaction test is a functional experiment method to verify whether a test compound is an agonist or an antagonist to ADP receptor. […] The platelet product isolated from whole blood was purchased from Chung-Nam blood center (Dae-joen, South Korea). The platelet was isolated from 400 mL of whole blood containing 56 mL of CPDA-1 anticoagulant. To isolate the platelet product, 400 mL of whole blood was centrifuged at 260×g for 5 minutes, and then obtained PRP (platelet rich plasma) was secondary centrifuged at 370×g for 6 minutes. Platelet pellet (10^9/mL) was suspended with 45 mL of plasma and then agitated over 1 hour at 22° C. blood reservoir to stabilize it. The stabilized platelet product was used in the experiment within 24 hours. PCs (Platelet Concentrates) were gently transferred to a new 50 ml-falcon tube. The number of platelet was counted by using animal blood counter (ABC Vet, ABX diagnostics, France). The volume of 30 mL of PCs collected from same donor was centrifuged at 1500 g for 10 min at room temperature to prepare platelet-poor plasma (PPP). The platelet count was adjusted to platelet number of 3˜4×10^8/mL by diluting with PPP.
# Evaluation on Inhibitory Effect of ADP-Induced Aggregation
# Inhibition of ADP-induced aggregation was determined in 96-well flat-bottom plates (Costar, USA) at room temperature. The diluted platelet was aliquoted into each well of 96 well plate in the volume of 188 μl. […] The platelet including test compounds was immediately mixed on a shaker at 1050 rpm for 1 min and incubated at room temperature for 20 min. Then, 10 μL volume of 400 μM ADP was added: the final concentration of 20 μM ADP in the total reaction volume of 0.2 mL/well. After shaking of the plate at room temperature for 3 min, the absorption of the samples was determined at 595 nm using a microtiter plate reader (Softmax, Molecular Devices).
# A dose-dependent curve on serial dilutions of ADP was accomplished by adding vehicle (DMSO) instead of antagonists in order to calculate EC50 of ADP. Inhibition of aggregation was calculated from the increase of absorption at 595 nm at 3 min of the reaction incubation, compared to results of absorption between the 0 and 20 μM ADP control without antagonists. Sigmoidal dose-response curves and Ki were derived by non-linear regression analysis using the Prism software (GraphPad, San Diego Calif.).
row,Compound,Ki [nM]
1,"CCCc1cc2c(N3CCn4c(nnc4C(F)(F)F)C3)nc(N3CC[C@H](C(=O)N(C)C)C3)nc2s1 [Example 1-88, (S)-1-[6-Propyl-4-(3-trifluoromethyl-5,6-dihydro-8H-[1,2,4]triazolo[4,3-a]pyrazin-7-yl)-thieno[2,3-d]pyrimidin-2-yl]-pyrrolidine-3-carboxylic acid dimethylamide]",16
2,"CCCc1cc2c(N3CCn4c(nnc4C(F)(F)F)C3)nc(N3CCCC(C(N)=O)C3)nc2s1 (stereo not shown) [Example 1-92, 1-[6-Propyl-4-(3-trifluoromethyl-5,6-dihydro-8H-[1,2,4]triazolo[4,3-a]pyrazin-7-yl)-thieno[2,3-d]pyrimidin-2-yl]-piperidine-3-carboxylic acid amide]",30
3,"CCCc1cc2c(N3CCn4c(nnc4C(F)(F)F)C3)nc(N3CCCC(C(=O)NC)C3)nc2s1 (stereo not shown) [Example 1-93, 1-[6-Propyl-4-(3-trifluoromethyl-5,6-dihydro-8H-[1,2,4]triazolo[4,3-a]pyrazin-7-yl)-thieno[2,3-d]pyrimidin-2-yl]-piperidine-3-carboxylic acid methylamide]",204
4,"CCCc1cc2c(N3CCn4c(nnc4C(F)(F)F)C3)nc(N3CCCC(C(=O)N(C)C)C3)nc2s1 (stereo not shown) [Example 1-94, 1-[6-Propyl-4-(3-trifluoromethyl-5,6-dihydro-8H-[1,2,4]triazolo[4,3-a]pyrazin-7-yl)-thieno[2,3-d]pyrimidin-2-yl]-piperidine-3-carboxylic acid dimethylamide]",29
5,"CCCc1cc2c(N3CCn4c(nnc4C(F)(F)F)C3)nc(N3CCCC(C(=O)NO)C3)nc2s1 (stereo not shown) [Example 1-95, 1-[6-Propyl-4-(3-trifluoromethyl-5,6-dihydro-8H-[1,2,4]triazolo[4,3-a]pyrazin-7-yl)-thieno[2,3-d]pyrimidin-2-yl]-piperidine-3-carboxylic acid hydroxyamide]",11
6,"CCCc1cc2c(N3CCn4c(nnc4C(F)(F)F)C3)nc(N3CC[C@H](NC(=O)CO)C3)nc2s1 [Example 1-100, 2-Hydroxy-N-{(S)-1-[6-propyl-4-(3-trifluoromethyl-5,6-dihydro-8H-[1,2,4]triazolo[4,3-a]pyrazin-7-yl)-thieno[2,3-d]pyrimidin-2-yl]-pyrrolidin-3-yl}-acetamide]",6
7,"CCCc1cc2c(N3CCn4c(nnc4C(F)(F)F)C3)nc(N3CC[C@H](NC(=O)CN)C3)nc2s1 [Example 1-101, 2-Amino-N-{(S)-1-[6-propyl-4-(3-trifluoromethyl-5,6-dihydro-8H-[1,2,4]triazolo[4,3-a]pyrazin-7-yl)-thieno[2,3-d]pyrimidin-2-yl]-pyrrolidin-3-yl}-acetamide]",3.5
8,"CCCc1cc2c(N3CCn4c(nnc4C(F)(F)F)C3)nc(N3CC[C@H](NC(=O)COC)C3)nc2s1 [Example 1-102, 2-Methoxy-N-{(S)-1-[6-propyl-4-(3-trifluoromethyl-5,6-dihydro-8H-[1,2,4]triazolo[4,3-a]pyrazin-7-yl)-thieno[2,3-d]pyrimidin-2-yl]-pyrrolidin-3-yl}-acetamide]",8.6
9,"CCCc1cc2c(N3CCn4c(nnc4C(F)(F)F)C3)nc(N3CC[C@H](NC(C)=O)C3)nc2s1 [Example 1-105, N-{(S)-1-[6-Propyl-4-(3-trifluoromethyl-5,6-dihydro-8H-[1,2,4]triazolo[4,3-a]pyrazin-7-yl)-thieno[2,3-d]pyrimidin-2-yl]-pyrrolidin-3-yl}-acetamide]",4.4
10,"CCCc1cc2c(N3CCn4c(nnc4C(F)(F)F)C3)nc(N3CC[C@H](NC(=O)C(F)(F)F)C3)nc2s1 [Example 1-106, 2,2,2-Trifluoro-N-{(S)-1-[6-propyl-4-(3-trifluoromethyl-5,6-dihydro-8H-[1,2,4]triazolo[4,3-a]pyrazin-7-yl)-thieno[2,3-d]pyrimidin-2-yl]-pyrrolidin-3-yl}-acetamide]",16
11,"CCCc1cc2c(N3CCn4c(nnc4C(F)(F)F)C3)nc(N3CC[C@H](NC(=O)C(C)(C)O)C3)nc2s1 [Example 1-107, 2-Hydroxy-2-methyl-N-{(S)-1-[6-propyl-4-(3-trifluoromethyl-5,6-dihydro-8H-[1,2,4]triazolo[4,3-a]pyrazin-7-yl)-thieno[2,3-d]pyrimidin-2-yl]-pyrrolidin-3-yl}-propionamide]",19
12,"CCCc1cc2c(N3CCn4c(nnc4C(F)(F)F)C3)nc(N3CC[C@H](NC(=O)C4CC4)C3)nc2s1 [Example 1-108, Cyclopropanecarboxylic Acid {(S)-1-[6-propyl-4-(3-trifluoromethyl-5,6-dihydro-8H-[1,2,4]triazolo[4,3-a]pyrazin-7-yl)-thieno[2,3-d]pyrimidin-2-yl]-pyrrolidin-3-yl}-amide]",9.3
13,"CCCc1cc2c(N3CCn4c(nnc4C(F)(F)F)C3)nc(N3CC(N)C(O)C3)nc2s1 (stereo not shown) [Example 1-114, 4-Amino-1-[6-propyl-4-(3-trifluoromethyl-5,6-dihydro-8H-[1,2,4]triazolo[4,3-a]pyrazin-7-yl)-thieno[2,3-d]pyrimidin-2-yl]-pyrrolidin-3-ol]",3.8
14,"CCCc1cc2c(N3CCn4c(nnc4C(F)(F)F)C3)nc(N(CCO)CC(=O)O)nc2s1 [Example 1-118, {(2-Hydroxy-ethyl)-[6-propyl-4-(3-trifluoromethyl-5,6-dihydro-8H-[1,2,4]triazolo[4,3-a]pyrazin-7-yl)-thieno[2,3-d]pyrimidin-2-yl]-amino}-acetic acid]",34
15,"CCCc1cc2c(N3CCn4c(nnc4C(F)(F)F)C3)nc(N3CC[C@H](NC(=O)Cc4csc(N)n4)C3)nc2s1 [Example 1-119, 2-(2-Amino-thiazol-4-yl)-N-{(S)-1-[6-propyl-4-(3-trifluoromethyl-5,6-dihydro-8H-[1,2,4]triazolo[4,3-a]pyrazin-7-yl)-thieno[2,3-d]pyrimidin-2-yl]-pyrrolidin-3-yl}-acetamide]",7.2
16,"CCCc1cc2c(N3CCn4c(nnc4C(F)(F)F)C3)nc(N3CC[C@H](NC(=O)Cc4ccccn4)C3)nc2s1 [Example 1-121, N-{(S)-1-[6-Propyl-4-(3-trifluoromethyl-5,6-dihydro-8H-[1,2,4]triazolo[4,3-a]pyrazin-7-yl)-thieno[2,3-d]pyrimidin-2-yl]-pyrrolidin-3-yl}-2-pyridin-2-yl-acetamide]",19
17,"CCCc1cc2c(N3CCn4c(nnc4C(F)(F)F)C3)nc(N3CCS(=O)(=O)CC3)nc2s1 [Example 1-124, 7-[2-(1,1-Dioxo-1lambda*6*-thiomorpholin-4-yl)-6-propyl-thieno[2,3-d]pyrimidin-4-yl]-3-trifluoromethyl-5,6,7,8-tetrahydro-[1,2,4]triazolo[4,3-a]pyrazine]",3.9
18,"CCCc1cc2c(N3CCn4c(nnc4C(F)(F)F)C3)nc(N3C=CC4=NCCNC4=C3)nc2s1 [Example 1-133, 6-[6-Propyl-4-(3-trifluoromethyl-5,6-dihydro-8H-[1,2,4]triazolo[4,3-a]pyrazin-7-yl)thieno[2,3-d]pyrimidin-2-yl]-2,3,4,6-tetrahydro-pyrido[3,4-b]pyrazine]",145
19,"CCCc1cc2c(N3CCn4c(nnc4C(F)(F)F)C3)nc(OCCNCC(=O)OCC)nc2s1 [Example 3-54, {2-[6-Propyl-4-(3-trifluoromethyl-5,6-dihydro-8H-[1,2,4]triazolo[4,3-a]pyrazin-7-yl)-thieno[2,3-d]pyrimidin-2-yloxy]-ethylamino}-acetic acid ethyl ester]",206
20,"CCCc1cc2c(N3CCn4c(nnc4C(F)(F)F)C3)nc(OCCN(CC(=O)OCC)C(=O)C3CC3)nc2s1 [Example 3-56, (Cyclopropanecarbonyl-{2-[6-propyl-4-(3-trifluoromethyl-5,6-dihydro-8H-[1,2,4]triazolo[4,3-a]pyrazin-7-yl)-thieno[2,3-c]pyrimidin-2-yloxy]-ethyl}-amino)-acetic acid ethyl ester]",75
21,"CCCc1cc2c(N3CCn4c(nnc4C(F)(F)F)C3)nc(OCCN(CC(=O)O)C(=O)C3CC3)nc2s1 [Example 3-57, (Cyclopropanecarbonyl-{2-[6-propyl-4-(3-trifluoromethyl-5,6-dihydro-8H-[1,2,4]triazolo[4,3-a]pyrazin-7-yl)-thieno[2,3-d]pyrimidin-2-yloxy]-ethyl}-amino)-acetic acid]",23
22,"CCCc1cc2c(N3CCn4c(nnc4C(F)(F)F)C3)nc(OCCNC(=O)C3CC3)nc2s1 [Example 3-59, Cyclopropanecarboxylic Acid {2-[6-propyl-4-(3-trifluoromethyl-5,6-dihydro-8H-[1,2,4]triazolo[4,3-a]pyrazin-7-yl)-thieno[2,3-d]pyrimidin-2-yloxy]-ethyl}-amide]",1.5
